What follows are compounds tested against T1, BTK (Homo sapiens, UniProt Q06187) (assay: BTK degradation in TMD-8 cells, HTRF assay after 6 h treatment). Conditions: IC50 (DC50) of BTK degradation.
T1 construct: endogenous in cells; host or cells: TMD-8 cells
Type: cell-based
Method in brief: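 TMD-8 cells treated for 6 h with 8 compound doses in 6-fold dilution steps from a 1 mM 500× DMSO stock (0.2% DMSO), then lysed 30 min at room temperature. BTK in lysate detected by HTRF (665/620 nm) after overnight antibody incubation; DC50 from four-parameter curve fit.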

T1 sequence (Q06187 whole entry): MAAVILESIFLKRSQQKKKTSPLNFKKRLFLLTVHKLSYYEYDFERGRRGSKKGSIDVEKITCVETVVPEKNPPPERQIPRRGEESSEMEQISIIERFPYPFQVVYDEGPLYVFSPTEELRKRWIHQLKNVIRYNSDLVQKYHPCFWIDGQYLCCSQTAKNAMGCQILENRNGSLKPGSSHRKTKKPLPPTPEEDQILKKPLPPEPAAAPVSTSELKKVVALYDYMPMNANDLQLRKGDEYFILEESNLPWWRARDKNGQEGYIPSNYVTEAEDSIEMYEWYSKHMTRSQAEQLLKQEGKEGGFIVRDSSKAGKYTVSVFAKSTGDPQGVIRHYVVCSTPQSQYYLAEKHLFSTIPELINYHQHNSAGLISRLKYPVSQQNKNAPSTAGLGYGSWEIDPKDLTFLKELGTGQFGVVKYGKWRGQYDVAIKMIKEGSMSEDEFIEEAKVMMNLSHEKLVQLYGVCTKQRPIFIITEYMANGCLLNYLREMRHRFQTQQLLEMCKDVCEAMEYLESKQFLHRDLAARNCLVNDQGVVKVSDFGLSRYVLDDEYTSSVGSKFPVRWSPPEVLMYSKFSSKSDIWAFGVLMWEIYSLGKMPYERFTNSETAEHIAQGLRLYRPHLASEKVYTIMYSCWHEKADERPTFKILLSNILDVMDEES

| DC50 | Structure (SMILES) |
| --- | --- |
| 3.47 nM | Cc1nc(CCN2CCN(c3ccc(-c4cnc5[nH]nc(-c6ccc([C@@H](C)NC(=O)c7nc(C(C)(C)C)no7)c(CO)c6)c5c4)cc3)CC2)ccc1C1CCC(=O)NC1=O (stereo partly drawn) [Example 177, 3-(tert-butyl)-N-((1R)-1-(4-(5-(4-(4-(2-(5-(2,6-dioxopiperidin-3-yl)-6-methylpyridin-2-yl)ethyl)piperazin-1-yl)phenyl)-1H-pyrazolo[3,4-b]pyridin-3-yl)-2-(hydroxymethyl)phenyl)ethyl)-1,2,4-oxadiazole-5-carboxamide] |
| 6.81 nM | C[C@@H](NC(=O)c1noc(C(C)(C)C)n1)c1ccc(-c2n[nH]c3ncc(-c4ccc(N5CCN(CC6CCN(c7ccc(N8CCC(=O)NC8=O)cc7)CC6)CC5)nc4)cc23)cc1CO [Example 178, (R)-5-(tert-butyl)-N-(1-(4-(5-(6-(4-((1-(4-(2,4-dioxotetrahydropyrimidin-1(2H)-yl)phenyl)piperidin-4-yl)methyl)piperazin-1-yl)pyridin-3-yl)-1H-pyrazolo[3,4-b]pyridin-3-yl)-2-(hydroxymethyl)phenyl)ethyl)-1,2,4-oxadiazole-3-carboxamide] |
| 6.28 nM | Cc1cc(N2CCC(CN3CCN(c4ccc(-c5cnc6[nH]nc(-c7ccc([C@@H](C)NC(=O)c8noc(C(C)(C)C)n8)c(CO)c7)c6c5)cn4)CC3)CC2)ccc1N1CCC(=O)NC1=O [Example 179, (R)-5-(tert-butyl)-N-(1-(4-(5-(6-(4-((1-(4-(2,4-dioxotetrahydropyrimidin-1(2H)-yl)-3-methylphenyl)piperidin-4-yl)methyl)piperazin-1-yl)pyridin-3-yl)-1H-pyrazolo[3,4-b]pyridin-3-yl)-2-(hydroxymethyl)phenyl)ethyl)-1,2,4-oxadiazole-3-carboxamide] |
| 4.81 nM | Cc1cc(-c2n[nH]c3ncc(-c4ccc(N5CCN(C6CCN(c7ccc(NC8CCC(=O)NC8=O)cc7)CC6)CC5)cc4)cc23)ccc1[C@@H](C)NC(=O)c1noc(C(C)(C)C)n1 (stereo partly drawn) [Example 180, 5-(tert-butyl)-N-((1R)-1-(4-(5-(4-(4-(1-(4-((2,6-dioxopiperidin-3-yl)amino)phenyl)piperidin-4-yl)piperazin-1-yl)phenyl)-1H-pyrazolo[3,4-b]pyridin-3-yl)-2-methylphenyl)ethyl)-1,2,4-oxadiazole-3-carboxamide] |
| 1.24 nM | Cc1cc(-c2n[nH]c3ncc(-c4ccc(N5CCN(CCc6ccc([C@H]7CCC(=O)NC7=O)c(F)c6)CC5)cn4)cc23)ccc1[C@@H](C)NC(=O)c1noc(C(C)(C)C)n1 [Example 181, 5-(tert-butyl)-N—((R)-1-(4-(5-(5-(4-(4-((R)-2,6-dioxopiperidin-3-yl)-3-fluorophenethyl)piperazin-1-yl)pyridin-2-yl)-1H-pyrazolo[3,4-b]pyridin-3-yl)-2-methylphenyl)ethyl)-1,2,4-oxadiazole-3-carboxamide] |
| 11.8 nM | Cc1cc(-c2n[nH]c3ncc(-c4ccc(N5CCN(CCc6ccc([C@@H]7CCC(=O)NC7=O)c(F)c6)CC5)cn4)cc23)ccc1[C@@H](C)NC(=O)c1noc(C(C)(C)C)n1 [Example 182, 5-(tert-butyl)-N—((R)-1-(4-(5-(5-(4-(4-((S)-2,6-dioxopiperidin-3-yl)-3-fluorophenethyl)piperazin-1-yl)pyridin-2-yl)-1H-pyrazolo[3,4-b]pyridin-3-yl)-2-methylphenyl)ethyl)-1,2,4-oxadiazole-3-carboxamide] |
| 19.8 nM | Cc1cc(-c2n[nH]c3ncc(-c4ccc(N5CCC(COc6ccc(C7CCC(=O)NC7=O)cc6)CC5)cc4)cc23)ccc1[C@@H](C)NC(=O)c1noc(C(C)(C)C)n1 (stereo partly drawn) [Example 183, 5-(tert-butyl)-N-((1R)-1-(4-(5-(4-(4-((4-(2,6-dioxopiperidin-3-yl)phenoxy)methyl)piperidin-1-yl)phenyl)-1H-pyrazolo[3,4-b]pyridin-3-yl)-2-methylphenyl)ethyl)-1,2,4-oxadiazole-3-carboxamide] |
| 14 nM | Cc1cc(-c2n[nH]c3ncc(-c4ccc(N5CCN(CC6CCN(c7ccc(N8CCC(=O)NC8=O)cc7)CC6)CC5)cc4)cc23)ccc1[C@@H](C)NC(=O)c1noc(C2(CO)CC2)n1 [Example 184, (R)—N-(1-(4-(5-(4-(4-((1-(4-(2,4-dioxotetrahydropyrimidin-1(2H)-yl)phenyl)piperidin-4-yl)methyl)piperazin-1-yl)phenyl)-1H-pyrazolo[3,4-b]pyridin-3-yl)-2-methylphenyl)ethyl)-5-(1-(hydroxymethyl)cyclopropyl)-1,2,4-oxadiazole-3-carboxamide] |
| 16.2 nM | Cc1cc(-c2n[nH]c3ncc(-c4ccc(N5CCN(CC6CCN(c7ccc(N8CCC(=O)NC8=O)c(C)c7)CC6)CC5)cc4)cc23)ccc1[C@@H](C)NC(=O)c1noc(C2(CO)CC2)n1 [Example 185, (R)—N-(1-(4-(5-(4-(4-((1-(4-(2,4-dioxotetrahydropyrimidin-1(2H)-yl)-3-methylphenyl)piperidin-4-yl)methyl)piperazin-1-yl)phenyl)-1H-pyrazolo[3,4-b]pyridin-3-yl)-2-methylphenyl)ethyl)-5-(1-(hydroxymethyl)cyclopropyl)-1,2,4-oxadiazole-3-carboxamide] |
| 1.61 nM | Cc1cc(-c2n[nH]c3ncc(-c4ccc(N5CCN(CCn6cc(C7CCC(=O)NC7=O)cn6)CC5)cc4)cc23)ccc1[C@@H](C)NC(=O)c1noc(C(C)(C)C)n1 (stereo partly drawn) [Example 186, 5-(tert-butyl)-N-((1R)-1-(4-(5-(4-(4-(2-(4-(2,6-dioxopiperidin-3-yl)-1H-pyrazol-1-yl)ethyl)piperazin-1-yl)phenyl)-1H-pyrazolo[3,4-b]pyridin-3-yl)-2-methylphenyl)ethyl)-1,2,4-oxadiazole-3-carboxamide] |
| 9.56 nM | Cc1cc(-c2n[nH]c3ncc(-c4ccc(N5CCC(COc6ccc(N7CCC(=O)NC7=O)cc6)CC5)cc4)cc23)ccc1[C@@H](C)NC(=O)c1noc(C(C)(C)C)n1 [Example 187, (R)-5-(tert-butyl)-N-(1-(4-(5-(4-(4-((4-(2,4-dioxotetrahydropyrimidin-1(2H)-yl)phenoxy)methyl)piperidin-1-yl)phenyl)-1H-pyrazolo[3,4-b]pyridin-3-yl)-2-methylphenyl)ethyl)-1,2,4-oxadiazole-3-carboxamide] |
| 9.91 nM | Cc1cc(-c2n[nH]c3ncc(-c4ccc(N5CCN(CC(F)(F)c6ccc(C7CCC(=O)NC7=O)cc6)CC5)cc4)cc23)ccc1[C@@H](C)NC(=O)c1nc(C(C)(C)C)no1 (stereo partly drawn) [Example 188, 3-(tert-butyl)-N-((1R)-1-(4-(5-(4-(4-(2-(4-(2,6-dioxopiperidin-3-yl)phenyl)-2,2-difluoroethyl)piperazin-1-yl)phenyl)-1H-pyrazolo[3,4-b]pyridin-3-yl)-2-methylphenyl)ethyl)-1,2,4-oxadiazole-5-carboxamide] |
| 23.6 nM | Cc1cc(-c2n[nH]c3ncc(-c4ccc(N5CC6CN(CCc7ccc(C8CCC(=O)NC8=O)c(C)n7)CC6C5)cn4)cc23)ccc1[C@@H](C)NC(=O)c1noc(C(C)(C)C)n1 (stereo partly drawn) [Example 189, 5-(tert-butyl)-N-((1R)-1-(4-(5-(5-(5-(2-(5-(2,6-dioxopiperidin-3-yl)-6-methylpyridin-2-yl)ethyl)hexahydropyrrolo[3,4-c]pyrrol-2(1H)-yl)pyridin-2-yl)-1H-pyrazolo[3,4-b]pyridin-3-yl)-2-methylphenyl)ethyl)-1,2,4-oxadiazole-3-carboxamide] |
| 6.11 nM | Cc1cc(N2CCC(CN3CCN(c4ccc(-c5cnc6[nH]nc(-c7cc(CO)c([C@@H](C)NC(=O)c8nc(C(C)(C)C)no8)cc7F)c6c5)cc4)CC3)CC2)ccc1N1CCC(=O)NC1=O [Example 190, (R)-3-(tert-butyl)-N-(1-(4-(5-(4-(4-((1-(4-(2,4-dioxotetrahydropyrimidin-1(2H)-yl)-3-methylphenyl)piperidin-4-yl)methyl)piperazin-1-yl)phenyl)-1H-pyrazolo[3,4-b]pyridin-3-yl)-5-fluoro-2-(hydroxymethyl)phenyl)ethyl)-1,2,4-oxadiazole-5-carboxamide] |
| 7.34 nM | Cc1cc(-c2n[nH]c3ncc(-c4ccc(N5CCN(CC6CCN(c7ccc(C8CCC(=O)NC8=O)cc7)C6)CC5)cc4)cc23)ccc1[C@@H](C)NC(=O)c1noc(C(C)(C)C)n1 (stereo partly drawn) [Example 191, 5-(tert-butyl)-N-((1R)-1-(4-(5-(4-(4-((1-(4-(2,6-dioxopiperidin-3-yl)phenyl)pyrrolidin-3-yl)methyl)piperazin-1-yl)phenyl)-1H-pyrazolo[3,4-b]pyridin-3-yl)-2-methylphenyl)ethyl)-1,2,4-oxadiazole-3-carboxamide] |
| 4.03 nM | Cc1cc(-c2n[nH]c3ncc(-c4ccc(N5CCN(CC(F)(F)c6ccc(C7CCC(=O)NC7=O)cn6)CC5)cc4)cc23)ccc1[C@@H](C)NC(=O)c1nc(C(C)(C)C)no1 (stereo partly drawn) [Example 192, 3-(tert-butyl)-N-((1R)-1-(4-(5-(4-(4-(2-(5-(2,6-dioxopiperidin-3-yl)pyridin-2-yl)-2,2-difluoroethyl)piperazin-1-yl)phenyl)-1H-pyrazolo[3,4-b]pyridin-3-yl)-2-methylphenyl)ethyl)-1,2,4-oxadiazole-5-carboxamide] |
| 3.06 nM | Cc1cc(-c2n[nH]c3ncc(-c4ccc(N5CCN(CC(F)(F)c6ccc(C7CCC(=O)NC7=O)cn6)CC5)cc4)cc23)ccc1[C@@H](C)NC(=O)c1noc(C(C)(C)C)n1 (stereo partly drawn) [Example 193, 5-(tert-butyl)-N-((1R)-1-(4-(5-(4-(4-(2-(5-(2,6-dioxopiperidin-3-yl)pyridin-2-yl)-2,2-difluoroethyl)piperazin-1-yl)phenyl)-1H-pyrazolo[3,4-b]pyridin-3-yl)-2-methylphenyl)ethyl)-1,2,4-oxadiazole-3-carboxamide] |
| 1.69 nM | Cc1cc(-c2n[nH]c3ncc(-c4ccc(N5CCN(CCc6ccc(N7CCC(=O)NC7=O)cn6)CC5)cc4)cc23)ccc1[C@@H](C)NC(=O)c1noc(C(C)(C)C)n1 [Example 194, (R)-5-(tert-butyl)-N-(1-(4-(5-(4-(4-(2-(5-(2,4-dioxotetrahydropyrimidin-1(2H)-yl)pyridin-2-yl)ethyl)piperazin-1-yl)phenyl)-1H-pyrazolo[3,4-b]pyridin-3-yl)-2-methylphenyl)ethyl)-1,2,4-oxadiazole-3-carboxamide] |
